This is an account of results in patent US20090011410A1, “METHOD FOR TAILORING ADMINISTRATION OF DRUGS BY QUANTITATION OF MRNA” (priority 2004, published 2009).

This test deals with PUMA mRNA. Put plainly: drug-induced PUMA mRNA expression in whole blood of leukemia and lymphoma patients. The test is classed as cell-based, human. To be noted: 2 hours at 37° C.
Where [1] appears, read: AML patient, drug concentrations of b94 (FIG. 8B).

As for `Cc1c(N)nc([C@H](CC(N)=O)NC[C@H](N)C(N)=O)nc1C(=O)N[C@H](C(=O)N[C@H](C)[C@@H](O)[C@H](C)C(=O)N[C@H](C(=O)NCCc1nc(-c2nc(C(=O)NCCCN[C@@H](C)c3ccccc3)cs2)cs1)[C@@H](C)O)[C@@H](O[C@@H]1O[C@@H](CO)[C@@H](O)[C@H](O)[C@@H]1O[C@H]1O[C@H](CO)[C@@H](O)[C@H](OC(N)=O)[C@@H]1O)c1c[nH]cn1` [PEP, peplomycin], the PUMA induction entry under setting [1] is “huge induction”.
With `COc1cccc2c1C(=O)c1c(O)c3c(c(O)c1C2=O)C[C@@](O)(C(C)=O)C[C@@H]3O[C@H]1C[C@H](N)[C@H](O)[C@H](C)O1` [DNR, daunorubicin], the PUMA induction result (CLL patient, drug concentrations of b94 (FIG. 8A)) is listed as “induced”.
On to `CN(Cc1cnc2nc(N)nc(N)c2n1)c1ccc(C(=O)N[C@@H](CCC(=O)O)C(=O)O)cc1` [MTX, methotrexate], for which the PUMA induction result under setting [1] was “huge induction”. Besides, where the note is “NHL patient, drug concentrations (FIG. 8C)”, the PUMA response entry was “strong PUMA response”.
Turning to `[NH2][Pt]([NH2])([Cl])[Cl]` [CDDP, cisplatin], under setting [1], the PUMA induction result was “huge induction”.
